As usually defined, the pIC50 is the negative decadic logarithm of the IC50, by convention in mol/L.

For 44 molecules, IC50 results are on record in PubChem BioAssay AID2305 (GlaxoSmithKline (GSK), 2010).

SMILES strings stand for the structures. pIC50: −log10 of the molar value.

In the test the test system is P. falciparum 3D7 growth, pLDH absorbance. The experiment in a line: blood-stage malaria parasite growth potency – strain 3D7, dose response (AID 2305).
As for `COc1ccc(NC(=O)/C=C/c2ccccc2Cl)cc1OCCN1CCC(NCc2ccccc2)CC1`, the pIC50 was 6.46. Molecule `Cn1c(N)c(C(=O)CSc2nnc(-c3cccs3)n2Cc2ccccc2)c(=O)n(C)c1=O` gave a pIC50 of 6.10.

With `CC(C)(C)c1ccc(CN2CCC(NC(=O)c3ccc(-c4cccc(C(F)(F)F)c4)s3)CC2)cc1`, the pIC50 is 6.44.

Molecule `Cc1cc(N[C@@H](Cc2ccccc2)C(=O)NCCc2ccccc2)nc(NCCc2ccc(F)cc2)n1` had a pIC50 of 6.18. In the case of `CC(C)c1sc(N2CCN(C)CC2)nc1C(=O)NCCc1ccc(Br)cc1`, the pIC50 was 5.95.

On to `O=C1NC(=O)C(c2cccc(NC(=O)c3ccncc3)c2)=C1c1ccccc1`, for which the pIC50 was 6.13. For the molecule `O=C(Nc1ccc(N2CCN(Cc3ccccc3Cl)CC2)cc1)c1ccc([N+](=O)[O-])o1`, the pIC50 was 6.01. Take `CC(C)CCN1CCCN(Cc2cccc(C(=O)Nc3ccc(C(C)(C)C)cc3)c2)CC1`: the pIC50 is 5.96. Under `Cc1cccc2[nH]c(-c3cccc(-c4ccc(NC(=O)CCc5cnc[nH]5)cc4)c3)nc12` stands 6.52; under `CN1CCCC(CN2CCN(Cc3cccc(-c4csc(-c5nc6ccccc6[nH]5)c4)c3)CC2)C1` (centres undefined), 6.39. As to `Cc1cnc(Nc2ccccc2)nc1N[C@@H](CCCN)C(=O)Nc1ccccc1`, the pIC50 was 6.09. On to `O=C(Nc1ccc(Br)c(Cl)c1)c1cc([N+](=O)[O-])cc2cn[nH]c12`, for which the negative logarithm of the IC50 (pIC50) is 5.97. `Cc1cc(N2CCCC2)nc(Nc2ccc(NC(=O)C(C)Oc3ccccc3)cc2)n1` (centres undefined): the pIC50 is 5.94. Under `CC(C)(C)c1cc(CN2CCN(Cc3ccccc3)CC2)cc(C(C)(C)C)c1O` stands 6.11; under `CC(C)S(=O)(=O)N1CCN(Cc2ccc3c(c2)nc(NC(=O)c2ccsc2)n3C[C@H](O)c2ccccc2)CC1`, 6.57; under `CCCC1N=C(N)N=C(N)N1c1cccc([N+](=O)[O-])c1` (centres undefined), 6.12. On to `CN1CCCN(c2ccnc3cc4c(cc23)N(C(=O)c2ccccc2Cl)CC4)CC1`, for which the pIC50 is 5.93. In turn, `CN(C)CCOc1ccc(-n2c(-c3nonc3N)nc3cncc(-c4ccc(F)cc4)c32)cc1` had a pIC50 of 6.06. `CCOc1ccc(Br)cc1/C=C/C(=O)Nc1ccc2c(c1)[C@@H]1CC[C@H]2N1C`: the negative-log IC50 (pIC50) is 5.98. Under `CCCc1cc(Cc2cnc(N)nc2N)cc(CCC)c1OC` stands 6.05.

The molecule `CCCCCC(=O)N1CCOC(CCN2CCc3c(c4ccccc4n3C)C2)(c2ccc(Cl)c(Cl)c2)C1` (centres undefined) showed a pIC50 of 6.01. `Cc1cc(N(C)CCN(C)C)nc(Nc2ccc(Cl)cc2)n1`: the pIC50 was 6.01.

As for `CCN(CC)CCNc1nccc(N(C)c2ccc(NC(=O)Nc3cc(C(F)(F)F)ccc3F)cc2)n1`, the pIC50 is 6.26.

In the case of `O=C(NCc1ccc(Cl)cc1)c1ccc(CN2CCCN(Cc3cccc(O)c3)CC2)cc1`, the pIC50 was 5.93. Molecule `CN1CCC(NCc2ccc(-c3cnc(NCc4ccccc4)nc3)cc2)CC1` gave a pIC50 of 6.08. In the case of `COc1cc2c(cc1OCCN1CCC(N3CCCC3)CC1)N(C(=O)/C=C/c1ccccc1Cl)CC2`, the pIC50 was 6.18.

The molecule `COc1ccc(-c2ccc(NC(=O)c3ccc(Cl)cc3)cc2)cc1CN1CCN(C)CC1` gave a pIC50 of 6.09.

`CCCC1N=C(N)N=C(N)N1c1ccc(Cl)cc1` (centres undefined) showed a pIC50 of 7.30. On to `CCN(CC)CCN(Cc1ccc(-c2ccc(C(F)(F)F)cc2)cc1)C(=O)Cn1c(CCc2cccc(F)c2F)nc(=O)c2ccc(C(F)(F)F)cc21`, for which the pIC50 was 6.11. The molecule `Cc1ccnc(NC(=O)c2cc(-c3cccc([N+](=O)[O-])c3)nc3onc(C)c23)c1` had a pIC50 of 6.05. `CNc1ccc(CNCc2cccc(-c3ccc(-c4nc5c(C)cccc5[nH]4)cc3)c2)cc1` gave a pIC50 of 6.18. Regarding `CCO[C@H]1CN[C@H](C#Cc2cc3c(Nc4ccc(OCc5cccc(F)c5)c(Cl)c4)ncnc3s2)C1`, the negative-log IC50 (pIC50) was 6.03. Under `CC(C)Cc1nc2nc(N)nc(N)c2cc1C(C)C` stands 6.64; under `CN(Cc1ccc(C#N)cc1)C1CCN(c2cc(NC(=O)c3cccc(F)c3)ccn2)CC1`, 5.76. `O=S(=O)(NCCN1CCCC1)c1ccc(-c2cccc(CNCc3ccccc3)c2)s1` showed a pIC50 of 6.09. `COc1ccc(CCn2c(C3CCCCC3)nc3oc4ccccc4c(=O)c3c2=O)cc1` had a pIC50 of 6.02. As for `COc1ccc(C[C@@H](N)C(=O)N[C@H]2[C@@H](O)[C@H](n3cnc4c(N(C)C)ncnc43)O[C@@H]2CO)cc1`, the negative-log IC50 (pIC50) is 6.77.

The molecule `O=C(Nc1cccc(OC2CCN(Cc3ccc(F)cc3)CC2)c1)c1ccc(C(F)(F)F)cc1` gave a pIC50 of 6.02. Molecule `Cc1cccc2[nH]c(-c3ccc(-c4cccc(CNCc5ccc(S(C)(=O)=O)cc5)c4)s3)nc12` had a pIC50 of 6.48. In the case of `Oc1ccc(C2CNCCc3c2cc(O)c(OCc2ccccc2)c3Cl)cc1` (centres undefined), the pIC50 was 6.14. For the molecule `Cc1nc2ccccc2n1C1C[C@H]2CC[C@@H](C1)N2Cc1nccn1-c1ccccc1` (some centres undefined), the pIC50 is 6.43. In turn, `OC(CNc1ccnc(Nc2cccc(CCN3CCOCC3)c2)n1)c1ccccc1` (centres undefined) gave a pIC50 of 6.23. In turn, `O=C(Nc1cccc(C2=NCCCN2)c1)Nc1cccc(C2=NCCCN2)c1` had a pIC50 of 6.25. On to `Cc1cnc(CCNC(=O)c2cc(-c3ccc(Cl)cc3)cs2)[nH]1`, for which the pIC50 was 6.62.
